# Assay results: US11613556B2, “Oxysterols and methods of use thereof” (Sage Therapeutics, Inc., priority 2016, dated 2023)
# Like-named read-outs stand apart in the source and are kept apart here.
# Legend:
# Assay type in all cases: cell-based
# [1] = target: GluN2B glutamate receptors expressed in mammalian cells (Homo sapiens (Human), UniProt Q05586+Q13224); assay: Whole-cell patch clamp of mammalian cells (Ionworks Barracuda), positive allosteric modulation, GluN2B; settings: for Emax: read-out: GluN2B PCA EMax (%)
# GluN2B glutamate receptors expressed in mammalian cells, sequence (Q13224 27-1484, other chains not shown): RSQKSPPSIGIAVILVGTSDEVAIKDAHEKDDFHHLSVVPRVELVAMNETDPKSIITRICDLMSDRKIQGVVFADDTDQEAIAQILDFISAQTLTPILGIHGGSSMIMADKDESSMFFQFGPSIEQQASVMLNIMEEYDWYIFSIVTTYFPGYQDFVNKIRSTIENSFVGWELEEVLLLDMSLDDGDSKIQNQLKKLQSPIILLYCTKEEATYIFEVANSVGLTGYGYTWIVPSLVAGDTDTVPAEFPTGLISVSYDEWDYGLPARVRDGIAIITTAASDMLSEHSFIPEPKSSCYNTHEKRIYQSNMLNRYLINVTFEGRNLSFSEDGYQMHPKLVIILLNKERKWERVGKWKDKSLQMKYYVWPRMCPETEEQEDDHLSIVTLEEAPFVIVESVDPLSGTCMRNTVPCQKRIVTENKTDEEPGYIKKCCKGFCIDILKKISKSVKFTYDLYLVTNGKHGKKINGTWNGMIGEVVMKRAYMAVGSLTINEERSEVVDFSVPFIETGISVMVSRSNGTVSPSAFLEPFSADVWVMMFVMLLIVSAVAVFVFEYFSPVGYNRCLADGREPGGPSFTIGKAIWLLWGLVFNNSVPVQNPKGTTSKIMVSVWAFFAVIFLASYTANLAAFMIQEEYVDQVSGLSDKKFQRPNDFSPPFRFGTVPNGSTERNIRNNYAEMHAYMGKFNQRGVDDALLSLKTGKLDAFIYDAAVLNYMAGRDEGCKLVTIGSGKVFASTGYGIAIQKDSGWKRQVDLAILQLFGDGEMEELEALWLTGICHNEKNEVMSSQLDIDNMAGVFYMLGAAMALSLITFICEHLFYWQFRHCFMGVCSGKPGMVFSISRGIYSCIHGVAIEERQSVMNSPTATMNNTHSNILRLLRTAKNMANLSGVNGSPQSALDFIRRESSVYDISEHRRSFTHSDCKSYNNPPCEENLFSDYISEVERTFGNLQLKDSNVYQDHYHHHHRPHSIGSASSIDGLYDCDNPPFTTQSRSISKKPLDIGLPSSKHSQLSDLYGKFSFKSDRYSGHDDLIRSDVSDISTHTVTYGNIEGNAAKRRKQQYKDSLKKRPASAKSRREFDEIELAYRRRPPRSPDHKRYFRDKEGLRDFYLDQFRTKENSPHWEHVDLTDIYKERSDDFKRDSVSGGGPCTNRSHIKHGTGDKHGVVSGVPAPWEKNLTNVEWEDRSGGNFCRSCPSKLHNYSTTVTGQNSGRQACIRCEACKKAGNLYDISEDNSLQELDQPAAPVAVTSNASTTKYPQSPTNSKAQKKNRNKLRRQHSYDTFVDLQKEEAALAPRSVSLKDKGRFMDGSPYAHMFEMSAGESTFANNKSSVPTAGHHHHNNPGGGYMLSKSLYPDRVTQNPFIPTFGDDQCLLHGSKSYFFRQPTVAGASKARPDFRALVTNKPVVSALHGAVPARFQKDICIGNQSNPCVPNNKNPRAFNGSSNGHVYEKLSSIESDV
# Method: (§1) NMDA potentiation in mammalian cells which expressed NMDA receptors was assessed using the automatic patch-clamp system can be used determine the NAM activity of compounds as described below. An whole cell patch-clamp system can be used determine the PAM activity of compounds as described below.
# (§2) The measurements were performed using Ion Works Barracuda platform following this procedure:
# (§3) Electrophysiological Procedures: • a) Intracellular solution (mM): 50 mM CsCl, 90 mM CsF, 2 mM MgCl2, 5 mM EGTA, 10 mM HEPES. Adjust to pH 7.2 with CsOH. • b) Extracellular solution, HB-PS (composition in mM): NaCl, 137; KCl, 1.0; CaCl2, 5; HEPES, 10; Glucose, 10; pH adjusted to 7.4 with NaOH (refrigerated until use). • c) Holding potential: −70 mV, potential during agonist/PAM application: −40 mV.
# (§4) Recording Procedure: • a) Extracellular buffer will be loaded into the PPC plate wells (11 μL per well). Cell suspension will be pipetted into the wells (9 μL per well) of the PPC planar electrode. • b) Whole-cell recording configuration will be established via patch perforation with membrane currents recorded by on-board patch clamp amplifiers. • c) Two recordings (scans) will be performed. First, during pre-application of test article alone (duration of pre-application—5 min) and second, during test articles and agonist (EC20 L-glutamate and 30 μM glycine) co-application to detect positive modulatory effects of the test article.
# (§5) Test Article Administration: The first pre-application will consist of the addition of 20 μL of 2× concentrated test article solution and, second, of 20 μL of 1× concentrated test article and agonist at 10 μL/s (2 second total application time).
# (§6) Potentiating Effect of Positive Allosteric Modulators (PAM) on the Channel
# (§7) The maximal amplitude of the evoked currents are measured and defined as Peak Current Amplitude (PCA).
# [2] = target: GluN1/GluN2A glutamate receptors (human GRIN1/GRIN2A) expressed in HEK293 cells (Homo sapiens (Human), UniProt Q05586+Q12879); assay: Whole-cell patch clamp of mammalian cells (Ionworks Barracuda), positive allosteric modulation, GluN1/GluN2A; settings: for Emax: read-out: GluN2A PCA EMax (%)
# GluN1/GluN2A glutamate receptors (human GRIN1/GRIN2A) expressed in HEK293 cells, sequence (Q12879 whole entry, looked up, other chains not shown): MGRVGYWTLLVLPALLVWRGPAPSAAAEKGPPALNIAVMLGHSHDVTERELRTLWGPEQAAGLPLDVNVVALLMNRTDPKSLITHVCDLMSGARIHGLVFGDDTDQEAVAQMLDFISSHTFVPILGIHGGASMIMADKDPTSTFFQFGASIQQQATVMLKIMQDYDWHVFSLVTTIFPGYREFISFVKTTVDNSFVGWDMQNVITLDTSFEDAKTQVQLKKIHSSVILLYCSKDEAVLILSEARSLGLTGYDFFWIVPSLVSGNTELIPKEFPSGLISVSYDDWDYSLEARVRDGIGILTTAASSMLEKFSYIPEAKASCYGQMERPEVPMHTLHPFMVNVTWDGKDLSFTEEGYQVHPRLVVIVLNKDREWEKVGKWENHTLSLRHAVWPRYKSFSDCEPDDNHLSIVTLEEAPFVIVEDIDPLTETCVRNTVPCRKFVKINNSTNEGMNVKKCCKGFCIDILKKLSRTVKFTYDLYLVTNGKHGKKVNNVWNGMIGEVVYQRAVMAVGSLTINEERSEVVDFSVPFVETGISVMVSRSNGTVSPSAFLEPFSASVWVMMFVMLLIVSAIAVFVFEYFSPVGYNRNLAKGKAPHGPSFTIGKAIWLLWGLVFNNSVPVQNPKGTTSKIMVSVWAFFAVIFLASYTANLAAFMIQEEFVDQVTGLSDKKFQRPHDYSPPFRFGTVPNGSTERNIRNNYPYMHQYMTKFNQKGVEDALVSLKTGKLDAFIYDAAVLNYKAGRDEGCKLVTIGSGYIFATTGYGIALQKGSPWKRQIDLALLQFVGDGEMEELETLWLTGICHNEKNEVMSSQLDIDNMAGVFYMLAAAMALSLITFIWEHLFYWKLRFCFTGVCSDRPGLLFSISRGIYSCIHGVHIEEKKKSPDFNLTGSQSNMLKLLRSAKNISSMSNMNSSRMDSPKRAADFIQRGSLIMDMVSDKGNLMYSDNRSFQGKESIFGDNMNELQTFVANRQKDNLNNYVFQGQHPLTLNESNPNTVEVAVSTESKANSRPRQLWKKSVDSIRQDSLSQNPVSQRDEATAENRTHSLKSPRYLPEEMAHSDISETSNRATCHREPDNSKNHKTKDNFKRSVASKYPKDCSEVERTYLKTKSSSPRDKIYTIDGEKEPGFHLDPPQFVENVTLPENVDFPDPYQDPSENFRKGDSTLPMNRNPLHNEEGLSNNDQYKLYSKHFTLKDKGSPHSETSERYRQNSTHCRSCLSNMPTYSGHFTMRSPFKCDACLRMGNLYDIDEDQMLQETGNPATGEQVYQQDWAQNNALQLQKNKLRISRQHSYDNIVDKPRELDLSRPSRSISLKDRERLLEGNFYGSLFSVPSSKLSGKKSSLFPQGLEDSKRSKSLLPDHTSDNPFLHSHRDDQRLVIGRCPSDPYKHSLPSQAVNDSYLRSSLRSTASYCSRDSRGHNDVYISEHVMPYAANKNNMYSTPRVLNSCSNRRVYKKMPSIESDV
# Method: as §1, §2, §3, §4, §5, §6, §7
# [3] = target: glutamate-activated channels of the GRIN1/2A subtype stably transfected in HEK 293 cells (Homo sapiens (Human), UniProt Q05586+Q12879); assay: Automated patch-clamp system (QPatch HTX), percent potentiation at 1 μM; settings: HEK293, 1 μM test compound, 300 μM NMDA with 8 μM glycine, HEK 293 GRIN1/2A, read-out: GluN2A PCA % potentiation at 1 μM
# glutamate-activated channels of the GRIN1/2A subtype stably transfected in HEK 293 cells, sequence (Q12879 whole entry, looked up, other chains not shown): as above
# Method in brief: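 Tetracycline-induced HEK 293 cells stably expressing human GRIN1/2A were whole-cell recorded on QPatch HTX in Mg-free bath solution at pH 7.4. Compound at 1.0 μM (0.1% DMSO) was co-applied with submaximal 300 μM NMDA plus 8 μM glycine, and percent potentiation was recorded.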
# [4] = peak current amplitude, co-application with EC20 L-glutamate and 30 μM glycine, HEK293, read-out: GluN2A PCA EC50
# [5] = peak current amplitude, co-application with EC20 L-glutamate and 30 μM glycine, HEK293
# [6] = peak current amplitude, co-application with EC20 L-glutamate and 30 μM glycine, read-out: GluN2B PCA EC50
# [7] = peak current amplitude, co-application with EC20 L-glutamate and 30 μM glycine
SMILES,EC50 [1] [nM],Emax [1] [%],"EC50 [2, 4] [nM]","Emax [2, 5] [%]",activation at 1 µM [3] [%],"EC50 [1, 6] [nM]","Emax [1, 7] [%]",EC50 [2] [nM]
"CC[C@]1(O)CC[C@@]2(C)[C@@H](CC[C@@H]3[C@@H]2CC[C@]2(C)[C@@H]([C@H](C)[C@@H](O)CC4CCC(C)(C)CC4)CC[C@@H]32)C1 [Compound 4, (3S,5S,8R,9S,10S,13S,14S,17R)-17-((2S,3S)-4-(4,4-dimethylcyclohexyl)-3-hydroxybutan-2-yl)-3-ethyl-10,13-dimethylhexadecahydro-1H-cyclopenta[a]phenanthren-3-ol]",> 1000,< 100,1 to 100,< 100,< -40,,,
"CC[C@]1(O)CC[C@@]2(C)C(=CC[C@H]3[C@@H]4CC[C@H]([C@H](C)[C@H](O)CCC5CC5)[C@@]4(C)CC[C@@H]32)C1 [Compound 6, (3S,8S,9S,10R,13S,14S,17R)-17-((2S,3R)-5-cyclopropyl-3-hydroxypentan-2-yl)-3-ethyl-10,13-dimethyl-2,3,4,7,8,9,10,11,12,13,14,15,16,17-tetradecahydro-1H-cyclopenta[a]phenanthren-3-ol]",,,,< 100,-10 to 10,> 1000,< 100,> 1000
"CC(C)CC[C@H](O)[C@@H](C)[C@H]1CC[C@H]2[C@@H]3CC[C@H]4C[C@@](C)(O)CC[C@]4(C)[C@H]3CC[C@]12C [Compound 8, (3S,5S,8R,9S,10S,13S,14S,17R)-17-((2S,3S)-3-hydroxy-6-methylheptan-2-yl)-3,10,13-trimethylhexadecahydro-1H-cyclopenta[a]phenanthren-3-ol]",,,,< 100,< -40,> 1000,< 100,> 1000
"CC[C@]1(O)CC[C@@]2(C)C(=CC[C@H]3[C@@H]4CC[C@H]([C@H](C)[C@H](O)CC5CCC(C)(C)CC5)[C@@]4(C)CC[C@@H]32)C1 [Compound 12, (3S,8S,9S,10R,13S,14S,17R)-17-((2S,3R)-4-(4,4-dimethylcyclohexyl)-3-hydroxybutan-2-yl)-3-ethyl-10,13-dimethyl-2,3,4,7,8,9,10,11,12,13,14,15,16,17-tetradecahydro-1H-cyclopenta[a]phenanthren-3-ol]",,,,< 100,-10 to 10,> 1000,< 100,> 1000
"CC[C@]1(O)CC[C@@]2(C)[C@@H](CC[C@@H]3[C@@H]2CC[C@]2(C)[C@@H]([C@H](C)[C@H](O)CC4CCC(C)(C)CC4)CC[C@@H]32)C1 [Compound 20, (3S,5S,8R,9S,10S,13S,14S,17R)-17-((2S,3R)-4-(4,4-dimethylcyclohexyl)-3-hydroxybutan-2-yl)-3-ethyl-10,13-dimethylhexadecahydro-1H-cyclopenta[a]phenanthren-3-ol]",> 1000,< 100,> 1000,< 100,-40 to -10,,,
"CCC[C@H](O)[C@@H](C)[C@H]1CC[C@H]2[C@@H]3CC[C@@H]4C[C@](O)(CC)CC[C@]4(C)[C@H]3CC[C@]12C [Compound 23, (3S,5R,8R,9S,10S,13S,14S,17R)-3-ethyl-17-((2S,3S)-3-hydroxyhexan-2-yl)-10,13-dimethylhexadecahydro-1H-cyclopenta[a]phenanthren-3-ol]",,,,< 100,-40 to -10,> 1000,100 to 500,> 1000
"CC[C@]1(O)CC[C@@]2(C)[C@@H](CC[C@@H]3[C@@H]2CC[C@]2(C)[C@@H]([C@H](C)[C@@H](O)Cc4ccccc4)CC[C@@H]32)C1 [Compound 32, (3S,5S,8R,9S,10S,13S,14S,17R)-3-ethyl-17-((2S,3S)-3-hydroxy-4-phenylbutan-2-yl)-10,13-dimethylhexadecahydro-1H-cyclopenta[a]phenanthren-3-ol]",,,,< 100,-10 to 10,> 1000,< 100,> 1000
"CCC[C@H](O)[C@@H](C)[C@H]1CC[C@H]2[C@@H]3CC[C@H]4C[C@](O)(CC)CC[C@]4(C)[C@H]3CC[C@]12C [Compound 38, (3S,5S,8R,9S,10S,13S,14S,17R)-3-ethyl-17-((2S,3S)-3-hydroxyhexan-2-yl)-10,13-dimethylhexadecahydro-1H-cyclopenta[a]phenanthren-3-ol]",,,,< 100,-40 to -10,> 1000,< 100,> 1000
"CC[C@]1(O)CC[C@H]2[C@@H](CC[C@@H]3[C@@H]2CC[C@]2(C)[C@@H]([C@H](C)[C@H](O)CCC(C)C)CC[C@@H]32)C1 [Compound 40, (3S,5S,8R,9R,10S,13S,14S,17R)-3-ethyl-17-((2S,3R)-3-hydroxy-6-methylheptan-2-yl)-13-methylhexadecahydro-1H-cyclopenta[a]phenanthren-3-ol]",,,,< 100,-10 to 10,> 1000,100 to 500,> 1000
"CC[C@]1(O)CC[C@@]2(C)C(=CC[C@H]3[C@@H]4CC[C@H]([C@H](C)[C@H](O)CC5CCCC5)[C@@]4(C)CC[C@@H]32)C1 [Compound 46, (3S,8S,9S,10R,13S,14S,17R)-17-((2S,3R)-4-cyclopentyl-3-hydroxybutan-2-yl)-3-ethyl-10,13-dimethyl-2,3,4,7,8,9,10,11,12,13,14,15,16,17-tetradecahydro-1H-cyclopenta[a]phenanthren-3-ol]",,,,< 100,-40 to -10,> 1000,< 100,> 1000
"CC[C@]1(O)CC[C@@]2(C)[C@H](CC[C@@H]3[C@@H]2CC[C@]2(C)[C@@H]([C@H](C)[C@@H](O)CC4CCC(C)(C)CC4)CC[C@@H]32)C1 [Compound 59, (3S,5R,8R,9S,10S,13S,14S,17R)-17-((2S,3S)-4-(4,4-dimethylcyclohexyl)-3-hydroxybutan-2-yl)-3-ethyl-10,13-dimethylhexadecahydro-1H-cyclopenta[a]phenanthren-3-ol]",> 1000,< 100,> 1000,< 100,< -40,,,
"CC[C@]1(O)CC[C@@]2(C)[C@H](CC[C@@H]3[C@@H]2CC[C@]2(C)[C@@H]([C@H](C)[C@H](O)CC4CCCC4)CC[C@@H]32)C1 [Compound 67, (3S,5R,8R,9S,10S,13S,14S,17R)-17-((2S,3R)-4-cyclopentyl-3-hydroxybutan-2-yl)-3-ethyl-10,13-dimethylhexadecahydro-1H-cyclopenta[a]phenanthren-3-ol]",,,,< 100,-10 to 10,> 1000,< 100,> 1000
"CC[C@]1(O)CC[C@@]2(C)C(=CC[C@H]3[C@@H]4CC[C@H]([C@H](C)[C@@H](O)CCC5CC5)[C@@]4(C)CC[C@@H]32)C1 [Compound 69, (3S,8S,9S,10R,13S,14S,17R)-17-((2S,3S)-5-cyclopropyl-3-hydroxypentan-2-yl)-3-ethyl-10,13-dimethyl-2,3,4,7,8,9,10,11,12,13,14,15,16,17-tetradecahydro-1H-cyclopenta[a]phenanthren-3-ol]",,,,< 100,-10 to 10,> 1000,< 100,> 1000
"CCC[C@H](O)[C@@H](C)[C@H]1CC[C@H]2[C@@H]3CC=C4C[C@](O)(CC)CC[C@]4(C)[C@H]3CC[C@]12C [Compound 72, (3S,8S,9S,10R,13S,14S,17R)-3-ethyl-17-((2S,3S)-3-hydroxyhexan-2-yl)-10,13-dimethyl-2,3,4,7,8,9,10,11,12,13,14,15,16,17-tetradecahydro-1H-cyclopenta[a]phenanthren-3-ol]",,,,< 100,-40 to -10,> 1000,< 100,> 1000
